With `COc1cccc2c1CC1CC(CCN3CCC(c4c[nH]c5ccccc45)CC3)CN(C)C1C2` (centres undefined), the melting point – broadly, the temperature, or range, at which the solid turns liquid – lay within 215 to 217 °C. `Cc1nc2n(c(=O)c1CCN1CCC(C(=O)c3ccc(F)cc3)CC1)CCS2`: the melting point came out at 166 °C. The result for `c1cc2cc(Nc3ncnc4cnc(N5CCOCC5)nc34)ccc2cn1` reads 208 to 210 °C; that for `CCOc1ccc(-n2c(NCc3ccc(Cl)cc3)nc3ccc(Cl)cc32)cc1`, 135 to 136 °C. The same measure for `O=C(NCCCl)Oc1ccccc1`: 65 to 67 °C; for `CCOc1ccc(-c2nn(C(C)c3oc4ccccc4c(=O)c3-c3cccc(F)c3)c3ncnc(N)c23)cc1` (centres undefined): 229 to 232 °C. The result for `CN1CCC(C2Cc3c(O)cccc3C(=O)N2)CC1` (centres undefined) reads 216 to 218 °C.

The compound `CN(C)CC(O)COc1ccc2c(c1)OC(C)(C)CC2c1cccc2ccccc12` (centres undefined) registered a melting point of 123 to 125 °C. Regarding `Cn1c(=O)c(-c2c(Cl)cccc2Cl)cc2cnc(Nc3ccc(CCCC(=O)O)cc3)nc21`, the melting point was 169 to 171 °C.

In turn, `CC(C)Cc1ccc(C(C)C(=O)Oc2ccc(C(N)=S)cc2)cc1` (centres undefined) gave a melting point of 121 to 123 °C.

`O=C(C=NO)Nc1cc(Cl)cc(Cl)c1` displayed a melting point of 196 to 197 °C. The compound `Cc1ccc(C(=O)c2[nH]c3cc(Cl)ccc3c2CC(=O)O)cc1` gave a melting point of 182 to 184 °C.

Compound `O=C(O)c1cc(-c2ccccc2)cc2c(-c3ccccc3)c(Br)oc12` returned a melting point of 232 to 236 °C. The same measure for `CC(C)c1nc(C(C)C)c(CNC2CCCCC2)c(-c2ccc(F)cc2)c1CO`: 131 to 133 °C. The result for `O=c1[nH]c2cc(Cl)ccc2c(=O)n1CCCN1CC=C(c2ccc(Cl)cc2)CC1` reads 225 to 227 °C; that for `COc1cc(-c2nc(N)sc2SCC2CCCC2)c(OC)cc1C`, 88 to 89 °C.

Turning to `NS(=O)(=O)c1cc(Br)cc(C(F)(F)F)c1`, the melting point was in the range of 174 to 175 °C. As for `O=C(c1coc(-c2ccc(CCl)cc2)n1)N1CCCC1`, the melting point lay in the range of 126 to 128 °C. The same measure for `CCCCc1oc2ccccc2c1C(=O)NCc1ccc2cc(OCC(=O)OC)ccc2c1`: 142 to 143 °C; for `Brc1ccc2sc(-c3ccccc3)c(N3CCN(Cc4ccccc4)CC3)c2c1`: 156 to 157 °C; for `COc1c(C)c(C)c2c(c1C)C(C(=O)O)C(C)(C)O2` (centres undefined): 185 to 187 °C. The same measure for `CN(C)C(=O)C(C)(C)n1cc(Br)c(-c2ccccc2)n1`: 122 to 124 °C; for `CCOC(=O)c1nn(-c2ccc(C)cc2)cc1-c1ccccc1`: 115 to 117 °C. `CC(=O)CSc1nc2ccccc2cc1-c1ccccc1` displayed a melting point of 88 to 90 °C.

`Cc1ccc(S(=O)(=O)NC(=O)OCCc2ccc(-n3c(CCCc4cccnc4)nc4cc(C(F)(F)F)c(Cl)cc43)cc2)cc1` registered a melting point of 90 to 95 °C. The same measure for `COC(=O)C=Cc1ccc(OCCN(C)c2ccccn2)cc1`: 93 to 95 °C; for `COCCCn1c2cc(C)ccc2n2c(C)nnc12`: 113 to 114 °C. The result for `OCC1=CC=C(COc2cccc(O)c2)SS1` reads 116 °C. Consider `CC(C)[C@]1(CCc2ccc(O)cc2)CC(O)=C(Sc2cc(C(C)(C)C)cc3sc(N)nc23)C(=O)O1`, for which the melting point was 168 to 179 °C. The result for `CCC(C(=O)C(C)C(O)C(C)CCc1c(Cl)cc(C)c(O)c1C(=O)O)C1OC(CC)(C2CCC(O)(CC)C(C)O2)CC1C` (centres undefined) reads 183 to 185 °C. `COc1ccccc1Sc1c(O)c2c(Cl)cc(Cl)cc2[nH]c1=O` displayed a melting point of 269 to 270 °C. The same measure for `CC1Oc2ccc(CN3CCN(CCO)CC3)cc2NC1=O` (centres undefined): 174 °C; for `COc1ccc(/C=C/C(=O)Nc2ccccc2)cc1OC`: 131 to 133 °C. `O=C1CCC(CCN2CCN(c3ccccn3)CC2)CC1` came in with a melting point of 104 to 106 °C. Take `COc1ccc(S(=O)(=O)N(Cc2cccnc2)c2c(C(=O)NO)cnc3c2c(C)nn3C)cc1`: the melting point lay in the range of 202 to 204 °C.

`CC=CCOc1ccc(C)c2c1C(=O)CC2` registered a melting point of 87.5 to 92 °C.

In the case of `O=C(Nc1ccc(N2CC(F)(F)C2)nc1)c1cc2cc(C(F)(F)F)cnc2n1Cc1cccc(F)c1`, the melting point was in the range of 222 to 224 °C. In the case of `NS(=O)(=O)c1ccc(-c2cnn(-c3ccc(F)c(Cl)c3)c(=O)c2-c2ccc(F)cc2)cc1`, the melting point was 208 to 210 °C. `CN1CCC(c2nn(-c3ccc(C(F)(F)F)cc3)c3ccc(F)cc23)CC1` had a melting point of 126 to 128 °C. For the compound `Cc1cc(F)ccc1NC(=O)c1cccc(S(=O)(=O)N(C)c2ccc(Br)cc2)c1`, the melting point lay in the range of 163 to 165 °C. The result for `N#Cc1[nH]c(-c2c(Cl)cc(C(F)(F)F)cc2Cl)nc1Br` reads 270 to 272 °C; that for `C=CCNc1ccc(N(CCO)CCO)cc1[N+](=O)[O-]`, 73 to 75 °C; that for `Oc1cc2c(cc1CCCCSc1cccnc1)OCC2`, 130 to 131 °C.

For the compound `CCOC(=O)c1cn(-c2cc(N(C)C)c(F)cc2F)c2nc(Cl)c(F)cc2c1=O`, the melting point is 158 to 163 °C.

`O=c1[nH]c2nc(C(F)(F)F)cc(C(F)(F)F)c2cc1-c1ccncc1`: the melting point is 250 to 270 °C.

For the compound `Cc1ccc(N2CCCN(c3ccnc4sc(C(N)=O)c(N)c34)CC2)cc1F`, the melting point lay within 79 to 83 °C.

The compound `O=C(O)COc1cc(F)ccc1C(=O)NCc1ccc(Br)cc1F` had a melting point of 143 to 145 °C. The result for `CC(=O)C1CCC2C3CCC4CC=CCC4(C)C3C(N)CC12C` (centres undefined) reads 127 to 129 °C. The same measure for `c1ccc2[nH]c(CN3CCOCC3)nc2c1`: 235 to 236 °C; for `Cc1nn(-c2ccccn2)cc1COc1ccc(CCC(=O)O)cc1`: 129 to 130 °C; for `Cc1cccc2c(Nc3cc(CO)cc(NC(=O)Oc4ccc(N(CCCl)CCCl)cc4)c3)c3ccccc3nc12`: 229 to 231 °C. `CCOC(=O)c1cn(-c2ccc(OC)cc2)cn1`: the melting point lay in the range of 93 to 94 °C. The same measure for `COc1cc2c(cc1Nc1ncc(Cl)c(Nc3ccc(N4CCOCC4)cc3OC)n1)CCN(CC(=O)N(C)C)CC2`: 67 to 76 °C; for `COC(=O)CCNCC1CC2c3cccc4[nH]cc(c34)CC2N(C)C1` (centres undefined): 130 to 132 °C. `NCc1[nH]c2ccc(Cl)cc2c1-c1c(F)cccc1F`: the melting point is 199 to 200 °C.

The compound `CC(=O)Nc1ccc(-c2cc3cccc(C(=O)OCCN4CCCCC4)c3o2)cc1` had a melting point of 155 to 157 °C. The same measure for `CCCCNc1nn(C(=O)OC)c2c1c(=O)n(CCC)c1ccccc21`: 147 to 149 °C; for `CCOc1ccc(OCCCN2CCN(c3ccc(Cl)nn3)CC2)cc1`: 125 to 127 °C; for `CCOC(=O)Nc1ccc2c(c1)c(N)nn2C(=O)OCC`: 173 to 174 °C. Compound `N#CC1=NC(Cl)(Cl)N=C1Cl` registered a melting point of 114 to 115 °C. The same measure for `CCCCS(=O)C1CC(=O)N1CC(=O)CCc1ccccc1` (centres undefined): 145 to 146 °C; for `CCN1C(=O)Nc2ccc(Cl)cc2C1(C#CC1(C)CC1)C(F)(F)F` (centres undefined): 219 to 222 °C. Consider `CC(=O)ON1C(C)(C)CC(C(N)=O)C1(C)C` (centres undefined), for which the melting point is 150 to 151 °C. The same measure for `COc1ccc2sc(C34CC5CC(CC(C5)C3)C4)cc(=O)c2c1`: 140 °C; for `CC(C)(C)OC(=O)NC(CC(=O)Nc1n[nH]c(=S)s1)c1ccccc1` (centres undefined): 248 to 249 °C. The same measure for `OC(CNC1CC1)COc1ccc(-c2nc(C(F)(F)F)c[nH]2)cc1` (centres undefined): 169 to 171 °C; for `COc1cc(S(=O)(=O)N2CCN(C(=O)C=C(c3ccccc3)c3ccccc3)CC2)cc(OC)c1OC`: 163 to 165 °C.

`COc1ccc2c3c1OC1C(=O)C(C)CC4(OC)C(C2)N(C)CCC314` (centres undefined) returned a melting point of 215 to 221 °C. The same measure for `CS(=O)(=O)c1ccc(-n2cncc2-c2ccccc2F)cc1`: 188 to 189 °C. The result for `O=C(CCCCCCCNC(=O)c1cn2c3c(cccc13)CCC2)NO` reads 174 to 176 °C; that for `O=C(Nc1ccccc1)Nc1cc(Br)nc(Br)c1`, 237 to 239 °C; that for `Cc1cccc(COc2cccc(OCc3ccc4ccccc4n3)c2)c1C(=O)O`, 167 to 168 °C.

`CC1(C)COc2ccc(C(=O)O)cc21` registered a melting point of 171 to 173 °C. `CC(C)(C)CC(C)(C)c1cc(N=Nc2cc(C(=O)O)ccc2Cl)c(O)c(C(C)(C)c2ccccc2)c1` had a melting point of 218 to 220 °C. Consider `CC(C)(C)c1ccc(S(=O)(=O)n2c(CCC(=O)O)cc3cc(Cl)ccc32)cc1`, for which the melting point lay within 169 to 171 °C. The same measure for `COC(=O)c1ncncc1OC`: 75 °C. For the compound `Cc1oc(-c2ccco2)nc1CCc1ccc(CCCC2OC(=O)NC2=O)cc1` (centres undefined), the melting point is 123 to 124 °C. `CCCCCP(=O)(O)CCCN` had a melting point of 232 to 236 °C. Consider `Clc1ccc(-c2coc3ccc(Br)cc23)c(Cl)c1`, for which the melting point is 116 to 117 °C. The same measure for `COC(=O)NC1CCc2sccc2C1` (centres undefined): 108 to 109 °C.

`O=c1n(CC(O)(Cn2cncn2)c2ccc(F)cc2F)cnn1-c1ccc(OC(F)(F)F)cc1` (racemic) displayed a melting point of 128 to 130 °C. `COc1cc(N2CCCN(C3CCN(CCO)CC3)CC2)ccc1Nc1ncc2ccc(-c3ccccc3OC)n2n1` yielded a melting point of 77 to 94 °C. The result for `CC(C)C(NC(=O)OC(C)(C)C)N1CC(NC(=O)Cc2ccccc2)C1=O` (centres undefined) reads 64 to 66 °C; that for `Cc1cc(C)c2ncc(NC(=O)C=Cc3ccc(O)cc3)c(-c3ccccc3Cl)c2c1`, 228 to 230 °C; that for `Cc1cc(C)cc(NC(=O)[C@@H](C)N)c1`, 134 to 136 °C. Compound `O=C(N[C@H](Cc1ccccc1)C(=O)O)OCc1cc2cc(-c3ccsc3)ccc2o1` yielded a melting point of 169 to 170 °C. As for `CC(C)(C)OC(=O)N1CC(O)C(N=[N+]=[N-])C1` (centres undefined), the melting point is 34 to 36 °C. The result for `BrC=C(c1ccccc1)c1ccccc1` reads 45 °C; that for `O=C(Nc1ccc(C(=O)N2Cc3ccccc3Cc3ccccc32)cc1)c1cccc(C(F)(F)F)c1`, 190 to 191 °C.

Source of the values: a melting point compilation (Tetko et al.; mined from patent text by program, amines drawn as free bases though some values may be those of a salt).
